Results reported in the NIST ThermoML archive (doi:10.1016/j.tca.2005.11.024).

Experiments:
[1] = DTA
[2] = Molar enthalpy of transition or fusion; conditions: DSC
[3] = molar heat capacity at constant pressure; conditions: 101.33 kPa, Small sample (50 mg) DSC

O=S1(=O)CCCOC1 [1,3-oxathiane-3,3-dioxide]
Crystal
Conditions	Molar enthalpy of transition or fusion [kcal/mol]	Normal melting temperature [°C]
[1]	–	79.8
[2]	3.63	–

[3], Crystal
Conditions	molar heat capacity at constant pressure [J/K/mol]
268.15 K	133.2
270.15 K	134.5
275.15 K	136.5
280.15 K	138.6
285.15 K	140.6
290.15 K	143.3
295.15 K	146.3
298.15 K	148.1
300.15 K	149.6
305.15 K	153.8
310.15 K	158.6
315.15 K	161.5
320.15 K	164.8
325.15 K	168.3
330.15 K	171.7
335.15 K	176.3

c1cscn1 [1,3-thiazole]
Conditions	molar heat capacity at constant pressure [J/K/mol]
[3], 298.15 K, Liquid	122.1

O=S1(=O)CCSCC1 [1,4-dithiane sulfone]
Crystal
Conditions	Molar enthalpy of transition or fusion [kcal/mol]	Normal melting temperature [°C]
[1]	–	201.1
[2]	6.21	–

[3], Crystal
Conditions	molar heat capacity at constant pressure [J/K/mol]
268.15 K	141
270.15 K	141.7
275.15 K	143.8
280.15 K	145.9
285.15 K	148.1
290.15 K	149.8
295.15 K	151.8
298.15 K	152.7
300.15 K	153.5
305.15 K	155.6
310.15 K	158.1
315.15 K	160.5
320.15 K	163
325.15 K	165.5
330.15 K	167.5
335.15 K	168.9
340.15 K	171
345.15 K	173
350.15 K	175.1
355.15 K	177.4
360.15 K	179.5
365.15 K	181.6
370.15 K	184.4
375.15 K	186.2
380.15 K	189.1
385.15 K	191.2
390.15 K	195.1
395.15 K	199.6
400.15 K	203.3
405.15 K	205.7
410.15 K	209.1
415.15 K	212.2
420.15 K	215.5
425.15 K	218.8
430.15 K	222.8
435.15 K	226.2
440.15 K	230.2
445.15 K	234.7
450.15 K	239.4
454.15 K	243.2

O=S1(=O)CCOCC1 [1,4-oxathiane 4,4-dioxide]
Conditions	Molar enthalpy of transition or fusion [kcal/mol]	Normal melting temperature [°C]
[1], Crystal 1	–	130.2
[2], Crystal 2	4.83	–

[3], Crystal 2
Conditions	molar heat capacity at constant pressure [J/K/mol]
268.15 K	134.2
270.15 K	135.4
275.15 K	137.3
280.15 K	139.3
285.15 K	141.7
290.15 K	144.2
295.15 K	146.6
298.15 K	147.9
300.15 K	148.9
305.15 K	151.2
310.15 K	153.1
315.15 K	155.3
320.15 K	157.6
325.15 K	159.9
330.15 K	162
335.15 K	164.1
340.15 K	166.9
345.15 K	170.3
350.15 K	172.8
355.15 K	175.5
360.15 K	177.7
365.15 K	180.1
370.15 K	182.5
375.15 K	185.6
380.15 K	188.6
385.15 K	191.5
390.15 K	194.7
